Laboratory results as given in patent US20170334899A1, “AMINO-SUBSTITUTED ISOTHIAZOLES” (Bayer Pharma Aktiengesellschaft, priority 2014, published 2017).

Columns and labels:
CDK2/CycE = biological target: T1, CDK2/CycE (Homo sapiens, UniProt P24941); test: CDK2/CycE kinase assay (TR-FRET); assay type: biochemical; conditions: avg, read-out: CDK2 avg (IC50 [mol/l])
T1 construct: GST; purchased ProQinase GmbH (Freiburg, Germany); host or cells: insect cells (Sf9)
Summary of the method: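 Read-out is a TR-FRET 665/620 nm emission ratio from EDTA-stopped reactions detected with anti-pRB(pSer807/pSer811), Eu-labelled anti-mouse IgG and streptavidin-XL665, scaled between no-enzyme and uninhibited wells. Reaction: Sf9-expressed GST-CDK2/GST-CycE, 15 min compound preincubation, 10 μM ATP, 0.75 μM biotin-peptide, 25 min, 22° C., pH 8.0 Tris buffer.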

HeLa = test: Proliferation assay (crystal violet), HeLa; assay type: cell-based; conditions: Homo sapiens, HeLa, 96 h, HeLa cells; 4 days incubation; crystal violet staining; read-out: IC50 inhibition of proliferation, HeLa
Summary of the method: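 Four-day compound exposure (0.001-10 μM, 0.5% DMSO final) began 24 h after seeding 1000-5000 cells/well in medium with 10% fetal calf serum. Cell number read by crystal violet absorbance at 595 nm, scaled between day-zero plate and untreated control; 4-parameter fit gave IC50.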

SMILES | IC50 (CDK2/CycE) | IC50 (HeLa)
COCCOc1ccc(NC(=O)c2c(C)nsc2Nc2nc3c(C(F)(F)F)cccc3s2)cc1F [Example 1, N-[3-Fluoro-4-(2-methoxyethoxy)phenyl]-3-methyl-5-{[4-(trifluoromethyl)-1,3-benzothiazol-2-yl]amino}-1,2-thiazole-4-carboxamide] | ≥ 20 µM | 0.57 µM
Cc1nsc(Nc2nc3c(C(F)(F)F)cccc3s2)c1C(=O)Nc1ccc(OCCO)nc1 [Example 2, N-[6-(2-Hydroxyethoxy)pyridin-3-yl]-3-methyl-5-{[4-(trifluoromethyl)-1,3-benzo-thiazol-2-yl]amino}-1,2-thiazole-4-carboxamide] | ≥ 20 µM | 4.9 µM
COCCOc1ccc(NC(=O)c2c(C)nsc2Nc2nc3c(C(F)(F)F)cccc3s2)cn1 [Example 3, N-[6-(2-Methoxyethoxy)pyridin-3-yl]-3-methyl-5-{[4-(trifluoromethyl)-1,3-benzo-thiazol-2-yl]amino}-1,2-thiazole-4-carboxamide] |  | 0.91 µM
Cc1nsc(Nc2nc3c(C(F)(F)F)cccc3s2)c1C(=O)Nc1ccc(OCCO)c(F)c1 [Example 4, N-[3-Fluoro-4-(2-hydroxyethoxy)phenyl]-3-methyl-5-{[4-(trifluoromethyl)-1,3-benzothiazol-2-yl]amino}-1,2-thiazole-4-carboxamide] | ≥ 20 µM | 1.8 µM
Cc1nsc(Nc2cnc(C(F)(F)F)cn2)c1C(=O)Nc1ccc(OC2CCN(C(=O)OC(C)(C)C)CC2)nc1 [Example 5, tert-Butyl 4-[(5-{[(3-methyl-5-{[5-(trifluoromethyl)pyrazin-2-yl]amino}-1,2-thiazol-4-yl)carbonyl]amino}pyridin-2-yl)oxy]piperidine-1-carboxylate] | ≥ 20 µM | 0.56 µM
Cc1nsc(Nc2cc(C#N)ccn2)c1C(=O)Nc1ccc(OC2CCCNC2)nc1 (stereo not shown) [Example 35, 5-[(4-Cyanopyridin-2-yl)amino]-3-methyl-N-[6-(piperidin-3-yloxy)pyridin-3-yl]-1,2-thiazole-4-carboxamide] | ≥ 20 µM | 10 µM
Cc1nsc(Nc2ccc(C#N)cn2)c1C(=O)Nc1ccc(OC2CCCN(C(=O)OC(C)(C)C)C2)nc1 (stereo not shown) [Example 36, tert-Butyl 3-({5-[({5-[(5-cyanopyridin-2-yl)amino]-3-methyl-1,2-thiazol-4-yl}-carbonyl)amino]pyridin-2-yl}oxy)piperidine-1-carboxylate] | ≥ 20 µM | 1.1 µM
Cc1nsc(Nc2ccc(C#N)cn2)c1C(=O)Nc1ccc(OC2CCCNC2)nc1 (stereo not shown) [Example 37, 5-[(5-Cyanopyridin-2-yl)amino]-3-methyl-N-[6-(piperidin-3-yloxy)pyridin-3-yl]-1,2-thiazole-4-carboxamide] | ≥ 20 µM | 10 µM
Cc1nsc(Nc2ccc(C#N)cn2)c1C(=O)Nc1ccc(OC2CCCN(CCF)C2)nc1 (stereo not shown) [Example 38, 5-[(5-Cyanopyridin-2-yl)amino]-N-(6-{[1-(2-fluoroethyl)piperidin-3-yl]oxy}pyridin-3-yl)-3-methyl-1,2-thiazole-4-carboxamide] | ≥ 20 µM | 8.1 µM
Cc1nsc(Nc2ccc(C#N)cn2)c1C(=O)Nc1ccc(OC2CCCN(CC(F)F)C2)nc1 (stereo not shown) [Example 39, 5-[(5-Cyanopyridin-2-yl)amino]-N-(6-{[1-(2,2-difluoroethyl)piperidin-3-yl]oxy}-pyridin-3-yl)-3-methyl-1,2-thiazole-4-carboxamide] | ≥ 20 µM | 1.1 µM
Cc1nsc(Nc2ccc(C#N)cn2)c1C(=O)Nc1ccc(OC2CCCN(CC(F)(F)F)C2)nc1 (stereo not shown) [Example 40, 5-[(5-Cyanopyridin-2-yl)amino]-3-methyl-N-(6-{[1-(2,2,2-trifluoroethyl)piperidin-3-yl]oxy}pyridin-3-yl)-1,2-thiazole-4-carboxamide] | ≥ 20 µM | 0.54 µM
Cc1nsc(Nc2cnccn2)c1C(=O)Nc1ccc(OC2CCCN(C(=O)OC(C)(C)C)C2)nc1 (stereo not shown) [Example 41, tert-Butyl 3-{[5-({[3-methyl-5-(pyrazin-2-ylamino)-1,2-thiazol-4-yl]carbonyl}amino)-pyridin-2-yl]oxy}piperidine-1-carboxylate] | ≥ 20 µM | 10 µM
Cc1nsc(Nc2cnc3ccccc3n2)c1C(=O)Nc1ccc(OCCCNC(=O)OC(C)(C)C)nc1 [Example 42, tert-Butyl (3-{[5-({[3-methyl-5-(quinoxalin-2-ylamino)-1,2-thiazol-4-yl]carbonyl}-amino)pyridin-2-yl]oxy}propyl)carbamate] | ≥ 20 µM | 2.3 µM
Cc1nsc(Nc2cc(C#N)ccn2)c1C(=O)Nc1ccc(OCCCNC(=O)OC(C)(C)C)nc1 [Example 43, tert-Butyl [3-({5-[({5-[(4-cyanopyridin-2-yl)amino]-3-methyl-1,2-thiazol-4-yl}-carbonyl)amino]pyridin-2-yl}oxy)propyl]carbamate] | ≥ 20 µM | 10 µM
Cc1nsc(Nc2cc(C#N)ccn2)c1C(=O)Nc1ccc(OCCCN)nc1 [Example 44, N-[6-(3-Aminopropoxy)pyridin-3-yl]-5-[(4-cyanopyridin-2-yl)amino]-3-methyl-1,2-thiazole-4-carboxamide] | ≥ 20 µM | 10 µM
Cc1nsc(Nc2cc(C#N)ccn2)c1C(=O)Nc1ccc(OCCCNCC(F)F)nc1 [Example 45, 5-[(4-Cyanopyridin-2-yl)amino]-N-(6-{3-[(2,2-difluoroethyl)amino]propoxy}pyridin-3-yl)-3-methyl-1,2-thiazole-4-carboxamide] | ≥ 20 µM | 10 µM
Cc1nsc(Nc2ccc(C#N)cn2)c1C(=O)Nc1ccc(OCCCNC(=O)OC(C)(C)C)nc1 [Example 46, tert-Butyl [3-({5-[({5-[(5-cyanopyridin-2-yl)amino]-3-methyl-1,2-thiazol-4-yl}-carbonyl)amino]pyridin-2-yl}oxy)propyl]carbamate] | ≥ 20 µM | 10 µM
Cc1nsc(Nc2cnccn2)c1C(=O)Nc1ccc(OCCCNC(=O)OC(C)(C)C)nc1 [Example 47, tert-Butyl (3-{[5-({[3-methyl-5-(pyrazin-2-ylamino)-1,2-thiazol-4-yl]carbonyl}-amino)pyridin-2-yl]oxy}propyl)carbamate] | ≥ 20 µM | 10 µM
Cc1nsc(Nc2cnccn2)c1C(=O)Nc1ccc(OCCCN)nc1 [Example 48, N-[6-(3-Aminopropoxy)pyridin-3-yl]-3-methyl-5-(pyrazin-2-ylamino)-1,2-thiazole-4-carboxamide] | ≥ 20 µM | 10 µM
Cc1nsc(Nc2ccc(C#N)cn2)c1C(=O)Nc1ccc(OC[C@H]2CCN(CC(F)(F)F)C2)nc1 [Example 405, 5-[(5-Cyanopyridin-2-yl)amino]-3-methyl-N-(6-{[(35)-1-(2,2,2-trifluoroethyl)pyrrolidin-3-yl]methoxy}pyridin-3-yl)-1,2-thiazole-4-carboxamide] |  | 0.44 µM
CCN1CC[C@H](Oc2ccc(NC(=O)c3c(C)nsc3Nc3cnc(C(F)(F)F)cn3)cn2)[C@H](F)C1 [Example 424, N-(6-{[(3R,4S)-1-Ethyl-3-fluoropiperidin-4-yl]oxy}pyridin-3-yl)-3-methyl-5-{[5-(trifluoromethyl)pyrazin-2-yl]amino}-1,2-thiazole-4-carboxamide] |  | 0.53 µM
Cc1nsc(Nc2ccc(C#N)cn2)c1C(=O)Nc1ccc(Nc2ccc(F)c(F)c2)nc1 [Example 433, 5-[(5-Cyanopyridin-2-yl)amino]-N-{6-[(3,4-difluorophenyl)amino]pyridin-3-yl}-3-methyl-1,2-thiazole-4-carboxamide] |  | 5.4 µM
